# Measurements as given in patent US20080311126A1, “Antisense Oligonucleotides Directed to Ribonucleotide Reducatase R2 and Uses Thereof in Combination Therapies for the Treatment of Cancer” (Genesense Technologies, Inc, priority 2004, published 2008).
# “Also recorded” adds a separate entry of the source.
# How the values were obtained:
# Format in all cases: in vivo
# [1] = test system: Caki-1 human renal carcinoma; experiment: Caki-1 renal tumour xenograft in SCID mice, SEQ ID NO:1 and interferon alpha
# Method: Cell Line: Human renal carcinoma cell line (Caki-1) was grown as monolayer culture in Minimum essential medium (α-MEM) supplemented with 10% fetal bovine serum (FEBS), 0.1 mM non-essential amino acid, 1.0 mM sodium pyruvate, 100 U/ml penicillin, 100 μg/ml streptomycin and 0.25 μg/ml amphotericin B and 2 mM L-alanyl-L-glutamine at 37° C. in an atmosphere of 5% CO2 in air. The tumour cells were routinely subcultured twice weekly by trypsin-EDTA treatment. The cells were harvested from subconfluent logarithmically growing culture by treatment with trypsin-EDTA and counted for tumour inoculation.
# Tumour Inoculation: An acclimation period of at least 7 days was allowed between animal receipt and commencement of tumour inoculation. When the female SCID mice were 6-7 weeks of age (20-25 g), each mouse was subcutaneously (s.c.) injected with 5×10^6 Caki-1 human renal carcinoma cells in 0.1 ml of PBS at the right flank of the mice to induce tumour growth.
# Dose-Preparation and Treatment: The dose for SEQ ID NO:1 was formulated using the following procedure. From a concentrated stock solution (usually prepared in ddH2O at a concentration of 50 mg/ml and kept at −80° C.), SEQ ID NO:1 was diluted with saline to achieve a final target concentration of 1 or 2.5 mg/ml on the first day of dosing. Enough SEQ ID NO:1 was diluted so that the compound could be administered by bolus infusion into the tail vein every other day for the duration of the experiment. Recombinant interferon alfa-2b (Intron A™) was utilized according to the dose and treatment schedules below. The treatments were started 7 days after the tumour cell inoculation when the tumour size reached an approximate volume of 125 mm^3. Each treatment group contained 10 tumour-bearing mice. Routes of administration are indicated as follows: intravenous (i.v.) and intratumoural (i:t.).
# Groups and Treatments: The following treatment groups were evaluated: • 1. Saline treated group-1: saline 0.1 ml/mouse/48 hours, i.v., n=10 • 2. Saline treated group-2: saline 0.05 ml/mouse/5 days/week, i.t., n=10 • 3. […] Intron A 10^3 unit/5 days/week treated group: 10^3 unit Intron A in 0.05 ml saline, i.t., n=10 • 6. Intron A 10^5 unit/5 days/week treated group: 10^5 unit Intron A in 0.05 ml saline, i.t., n=10 • 7. SEQ ID NO:1 1 mg/kg Plus Intron A 10^3 treated group: “3+5”, n=10 • 8. SEQ ID NO:1 1 mg kg Plus Intron A 10^5 treated group: “3+6”, n=10 • 9. SEQ ID NO:1 2.5 mg/kg Plus Intron A […], n=10 • 10. SEQ ID NO:1 2.5 mg/kg Plus Intron A 10^5 treated group: “4+6”, n=10
# Mice received 25 treatments with SEQ ID NO:1 and 30 treatments with Intron A. The dosing schedule for Intron A was: treatment with Intron A for 3 consecutive weeks, 1 week off, and treatment with Intron A again for another 3 consecutive weeks. The dosing schedule for SEQ ID NO:1 was treatment with SEQ ID NO:1 every other day for the duration of the experiment.
# (§1) Endpoints: The effects of SEQ ID NO:1 and Intron A on tumour growth were determined. Tumour sizes were measured every week from day 7 after the tumour cell inoculation in two dimensions using a caliper, and the volume was expressed in mm^3 using the formula: V=0.5 a×b^2, where a and b are the long and short diameters of the tumour, respectively. Mean tumour volumes calculated from each measurement were then plotted in a standard graph to compare the anti-tumour efficacy to that of controls. A day after the last treatment, tumours were excised from the animals and their weights were measured.
# A second independent in vivo study was conducted as described in Example 1 utilizing SCID mice (female, 6 weeks old) and Caki-1 (human renal carcinoma cell line) to test the efficacy of SEQ ID NO:1 in combination with IFN alpha Briefly, 5×10^6 Caki-1 human renal carcinoma cells in 0.1 ml of PBS were injected subcutaneously at the right flank of the mice to induce tumour growth. Treatments started on the seventh day after tumour cell injection. […]
# [2] = test system: MDA-MB-231 human breast cancer cells; experiment: MDA-MB-231 breast tumour xenograft in CD-1 nude mice; conditions: oligonucleotide 10 mg/kg every other day i.v.; taxol 10 mg/kg, doxorubicin 5 mg/kg i.v. once a week
# Method: MDA-MB-231 human breast cancer cells (1×10^7 cells in 100 μl of PBS) were subcutaneously injected into the right flank of 6-7 weeks old female CD-1 nude mice. After the size of tumour reached an approximate volume of 100 mm^3, 5 days post tumour cell injection, SEQ ID NO:1, or the scrambled control oligonucleotide (SEQ ID NO:3) were administered by bolus infusion into the tail vein every other day at 10 mg/kg. Control animals received saline alone for the same period. Antitumour effect of SEQ ID NO:1 was further compared to that of taxol or doxorubicin alone or in combination. Taxol was administered intravenously once a week at a dose of 10 mg/kg for three (FIG. 17A) or four weeks (FIG. 17C). Doxorubicin was administered intravenously once a week at a dose of 5 mg/kg for first three weeks (FIG. 17A) or for two weeks (FIG. 17C). All treatments were stopped at day 33 (FIG. 17A) or at day 26 (FIG. 17C), respectively. A day after the last treatment, tumours were excised from the animals and their weights were measured. […] In FIG. 17C, antitumour activities were estimated by the inhibition of tumour volume, which was measured with calipers. Each point represents mean tumour volume calculated from 10 animals per experimental group.
# [3] = test system: Hela S3 human cervix epitheloid carcinoma cells; experiment: Hela S3 hydroxyurea resistant cervix carcinoma xenograft in SCID mice
# Method: Hela S3 human cervix epitheloid carcinoma cells (5×10^5 cells in 100 μl of PBS) were subcutaneously injected into the right flank of 6-7 weeks old female SCID mice. Hela S3 is a hydroxyurea resistant cell line. After the size of tumour reached an approximate volume of 100 mm^3, 3 days post tumour cell injection, SEQ ID NO:1 was administered by bolus infusion into the tail vein every other day at 10 mg/kg 6 times. Control animals received saline alone for the same period. Antitumour effect of SEQ ID NO:1 was further compared to that of Hydroxyurea or Cisplatin alone or in combination. Hydroxyurea was administered intraperitoneally every day at a dose of 250 mg/kg for 10 days. Cisplatin was administered intravenously once a week for three weeks at a dose of 4 mg/kg. Antitumour activities were estimated by the inhibition of tumour volume, which was measured with caliper. Each point represents mean tumour volume calculated from 10 animals per experimental group. […] As expected, treatment with Hydroxyurea during the same period was ineffective against Hydroxyurea-resistant tumour.
# [4] = test system: A498 human renal carcinoma; experiment: A498 renal tumour xenograft in SCID mice, SEQ ID NO:1 and interferon alpha
# Method: Cell line: Human renal carcinoma cell line (A498) was grown as monolayer culture in Minimum essential medium (α-MEM) supplemented with 10% fetal bovine serum (FBS), 0.1 mM non-essential amino acid, 1.0 mM sodium pyruvate, 100 U/ml penicillin, 100 μg/ml streptomycin and 0.25 μg/ml amphotericin B and 2 mM L-alanyl-1-glutamine at 37° C. in an atmosphere of 5% CO2 in air. The tumour cells were routinely subcultured twice weekly by trypsin-EDTA treatment. The cells were harvested from subconfluent logarithmically growing culture by treatment with trypsin-EDTA and counted for tumour inoculation.
# Tumour Inoculation: An acclimation period of at least 7 days was allowed between animal receipt and commencement of tumour inoculation. When the female SCID mice were 6-7 weeks of age (20-25 g), each mouse was subcutaneously injected with 9×10^6 A498 human renal carcinoma cells in 0.1 ml of PBS at the right flank of the mice to induce tumour growth.
# Dose Preparation and Treatment: The dose for SEQ ID NO:1 was formulated using the following procedure. From a concentrated stock solution (usually prepared in ddH2O at a concentration of 50 mg/ml and kept at −80° C.), SEQ ID NO:1 was diluted with saline to achieve a final target concentration of 1 or 2.5 mg/ml on the first day of dosing. Enough SEQ ID NO:1 was diluted so that the compound could be administered by bolus infusion into the tail vein every other day for the duration of the experiment. Recombinant interferon alfa-2b (ntron A™) was employed according to the dose and treatment schedules below. The treatments were started 20 days after the tumour cell inoculation when the tumour size reached an approximate volume of 200 mm^3. Each treatment group contained 10 tumour-bearing mice. Routes of administration are as follows: intravenous (i.v.) and intratumoural (i.t.).
# • 1. Saline treated group-1: saline 0.1 ml/mouse/48 hours, i.v., n=10 • 2. Saline treated group-2: saline 0.05 ml/mouse/5 days/week, i.t., n=10 • 3. SEQ ID NO:1 treated group: 1 mg/kg/48 hours in 0.1 ml saline, i.v. n=10 • 4. SEQ ID NO:1 treated group: 2.5 mg/kg/48 hours in 0.1 ml saline, i.v., n=10 • 5. […]
# Treatment started from day 20 after inoculation of human renal tumour cells. […]
# as §1, with “growth was” for “growth were”, “day 20” for “day 7”, “measured. […]” for “measured.”
# [5] = test system: Caki-1 human renal cancer cells; experiment: Caki-1 renal tumour xenograft in SCID mice, SEQ ID NO:1 and chemotherapeutics; conditions: Caki (renal); Mouse CD-1
# Method: Caki-1 human renal cancer cells (1×10^7 cells in […] of PBS) were subcutanteously injected into the right flank of 6-7 weeks old female SCID mice. After the size of tumour reached an approximate volume of 200 mm^3, 7 days post tumour cell injection, SEQ ID NO:1 was administered by bolus infusion into the tail vein every other day at 10 mg/kg. Control animals received saline alone for the same period. The antitumour effect of SEQ ID NO:1 was further compared to that of two chemotherapeutic agents: 5-FU and vinblastine. 5-FU was administered intraperitoneally at days 7-13, 21-27 and 35-36 with a dose of 13 mg/kg/day, while vinblastin was administered intraperitoneally at days 7, 14, 21, 28 and 35 at a dose of 0.6 mg/kg/week. Antitumour effects of each of these compounds were further compared to those of SEQ ID NO:1 in combination with 5-FU or with vinblastin. The two chemotherapeutic agents were applied as described above, one hour after the treatments with SEQ ID NO:1 when combination treatments occurred on the same day. All treatments were stopped at day 36. A day after the last treatment, tumours were excised from the animals and their weights were measured.
# [6] = Example 4, oligonucleotide 2.5 mg/kg every 2 days i.v., Intron A 10^5 unit 5 days/week i.t.
compound,measurement,setting,value
"ACGCACTCAGCTAGTGACAC (listed as DNA, chemistry not given here) [SEQ ID NO:3, reference compound]",effect on the efficacy of Intron A,"[1]; Example 4, SEQ ID NO:3 2.5 mg/kg plus Intron A 10^5",did not improve the efficacy of Intron A
same,"anti-tumour efficacy (tumour volume, tumour weight)",[1]; [6],no efficacy as a monotherapy
same,"antitumour effect (tumour weight, tumour volume)",[2],no significant anti-tumour activity as a monotherapy; also recorded: does not cooperate with doxorubicin
"NC(=O)NO [Hydroxyurea (HU), Hydroxyurea, reference compound]",Tumour weight as % of saline control,"[3]; Hela S3 (cervix), hydroxyurea resistance, SCID",92%
same,antitumour effect (tumour volume),"[3]; SEQ ID NO:1 10 mg/kg 6 times, Hydroxyurea 250 mg/kg i.p. 10 days, Cisplatin 4 mg/kg i.v. weekly",ineffective
Recombinant interferon alfa-2b [Intron A],"anti-tumour efficacy (tumour volume, tumour weight)","[1]; Example 2, SEQ ID NO:1 1 or 2.5 mg/kg/48 hours i.v., Intron A 10^3 or 10^5 unit 5 days/week i.t.",significant anti-tumour efficacy
same,"anti-tumour efficacy (tumour volume, tumour weight)","[1]; Example 3, SEQ ID NO:1 2.5 or 5 mg/kg every 2 days i.v., Intron 10^5 unit 5 days/week i.t.",significant anti-tumour efficacy
same,"anti-tumour efficacy (tumour volume, tumour weight)",[1]; [6],significant anti-tumour efficacy
same,"efficacy in combination with SEQ ID NO:1, subcutaneous versus intratumoural","[1]; Example 5, SEQ ID NO:1 2.5 mg/kg/2 days i.v. plus 100000 units Intron A x3/week s.c. or i.t.",equally effective
same,"anti-tumour efficacy (tumour volume, tumour weight)","[4]; Example 6, SEQ ID NO:1 1 or 2.5 mg/kg/48 hours i.v., Intron A 10^3 or 10^5 unit 5 days/week i.t.",significant anti-tumour efficacy
same,"anti-tumour efficacy (tumour volume, tumour weight)","[4]; Example 7, SEQ ID NO:1 2.5 mg/kg/2ds i.v., 10000 units Intron A x5/week for 2 weeks i.t.",significant anti-tumour efficacy
"O=c1[nH]cc(F)c(=O)[nH]1 [5-FU, 5-fluorouracil, reference compound]",Tumour weight as % of saline control,[5],52%
